# Activity calls are given as the source filed them. No cut-off for these calls is given here.
# Columns and labels:
# [1] = Binding affinity to HSP27 C59A mutant (79 to 176 residues) (unknown origin) expressed in Escherichia coli BL21 (DE3) cells by HSQC NMR analysis; parameters: species or system Homo sapiens; details: read-out: Kd(app)
# [2] = Binding affinity to HSP27 T61L mutant (79 to 176 residues) (unknown origin) expressed in Escherichia coli BL21 (DE3) cells by HSQC NMR analysis; parameters: species or system Homo sapiens; details: read-out: Kd(app)
# [3] = Binding affinity to HSP27 L21A mutant (79 to 176 residues) (unknown origin) expressed in Escherichia coli BL21 (DE3) cells by HSQC NMR analysis; parameters: species or system Homo sapiens; details: read-out: Kd(app)
# [4] = Binding affinity to HSP27 V23A mutant (79 to 176 residues) (unknown origin) expressed in Escherichia coli BL21 (DE3) cells by HSQC NMR analysis; parameters: species or system Homo sapiens; details: read-out: Kd(app)
# [5] = Binding affinity to HSP27 I56A mutant (79 to 176 residues) (unknown origin) expressed in Escherichia coli BL21 (DE3) cells by HSQC NMR analysis; parameters: species or system Homo sapiens; details: read-out: Kd(app)
# [6] = Binding affinity to HSP27 H46A mutant (79 to 176 residues) (unknown origin) expressed in Escherichia coli BL21 (DE3) cells by HSQC NMR analysis; parameters: species or system Homo sapiens; details: read-out: Kd(app)
# [7] = biological target: Heat shock protein beta-1 (Homo sapiens, UniProt P04792); assay: Binding affinity to HSP27 (79 to 176 residues) (unknown origin) expressed in Escherichia coli BL21 (DE3) cells by HSQC NMR analysis; details: for Kd: read-out: Kd(app)
# Chain of Heat shock protein beta-1 (P04792 whole entry, the tested form may be a part): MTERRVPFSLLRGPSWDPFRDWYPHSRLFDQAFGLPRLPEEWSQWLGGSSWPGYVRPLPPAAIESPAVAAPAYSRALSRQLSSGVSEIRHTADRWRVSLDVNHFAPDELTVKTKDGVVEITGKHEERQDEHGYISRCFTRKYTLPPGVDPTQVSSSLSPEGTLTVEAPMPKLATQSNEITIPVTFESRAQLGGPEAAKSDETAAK
smiles,measurement,setting,value
O=[N+]([O-])c1ccc(Oc2ccc(F)cc2F)c([N+](=O)[O-])c1,Kd,[1],67 µM
same,Kd,[2],32 µM
same,Kd,[3],42 µM
same,Kd,[4],69 µM
same,Kd,[5],63 µM
same,Kd,[6],240 µM
O=C(Oc1ccc(F)cc1F)c1ccc([N+](=O)[O-])cc1,Kd(app),[7],inactive
O=[N+]([O-])c1cccnc1Oc1ccc(F)cc1F,Kd,[7],177 µM
Nc1cccnc1Oc1ccc(F)cc1F,Kd,[7],> 1000 µM
O=[N+]([O-])c1cccnc1Oc1ccc(I)cc1,Kd(app),[7],inactive
O=[N+]([O-])c1cc(Oc2ccc(F)cc2F)ccc1Oc1ccc(F)cc1F,Kd(app),[7],inactive

# From ChEMBL document CHEMBL4715914, “Chemical validation of a druggable site on Hsp27/HSPB1 using in silico solvent mapping and biophysical methods” (Bioorg Med Chem, 2021)
